Results as given in patent US7285564B2, “Substituted 4-amino-1-(pyridylmethyl)piperidine and related compounds” (Theravance, Inc., priority 2002, dated 2007).

Target: T1, hM2 muscarinic receptor subtype (Homo sapiens, UniProt P08172)
T1 construct: expressed in transfected cells; membranes prepared
T1 sequence (P08172 1-466): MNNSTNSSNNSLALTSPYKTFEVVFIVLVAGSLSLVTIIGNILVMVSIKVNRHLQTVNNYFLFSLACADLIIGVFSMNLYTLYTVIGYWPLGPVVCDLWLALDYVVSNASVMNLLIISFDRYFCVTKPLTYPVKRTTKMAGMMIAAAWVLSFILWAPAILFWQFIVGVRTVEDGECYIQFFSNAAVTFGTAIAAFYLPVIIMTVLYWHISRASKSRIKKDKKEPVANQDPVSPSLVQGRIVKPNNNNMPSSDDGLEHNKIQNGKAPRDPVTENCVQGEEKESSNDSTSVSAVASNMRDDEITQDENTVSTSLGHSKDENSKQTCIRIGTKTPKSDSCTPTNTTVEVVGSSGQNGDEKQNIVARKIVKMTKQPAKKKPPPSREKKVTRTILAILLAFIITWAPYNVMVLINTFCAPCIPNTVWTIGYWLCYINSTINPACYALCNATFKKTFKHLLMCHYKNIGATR
Assay: Radioligand binding assay ([3H]NMS displacement), hM2
Settings: [3H]NMS at 1 nM; membranes of CHO cells expressing hM2
Protocol: CHO (Chinese hamster ovary) cell lines stably expressing cloned human hM1, hM2, hM3 and hM4 muscarinic receptor subtypes, respectively, were grown to near confluency in medium consisting of HAM's F-12 supplemented with 10% FBS (Fetal Bovine Serum) and 250 μg/mL Geneticin. The cells were grown in a 5% CO2, 37° C. incubator and lifted with dPBS+2 mM EDTA. Cells were collected by 5 minute centrifugation at 650×g, and cell pellets were either stored frozen at −80° C. or membranes were prepared immediately. For membrane preparation, cell pellets were resuspended in lysis buffer and homogenized with a Polytron PT-2100 tissue disrupter (Kinematica AG; 20 seconds×2 bursts). Crude membranes were centrifuged at 40,000×g for 15 minutes at 4° C. […] Protein concentration of the membrane suspension was determined by the method of Lowry, O. et al., (1951) […]: 193, 265. […]
Radioligand binding assays were performed in 96-well microtiter plates in a total assay volume of 100 μL. […] Filter plates were rinsed three times with wash buffer (10 mM HEPES) to remove unbound radioactivity. […] The plates were then counted in a PerkinElmer Topcount liquid scintillation counter (PerkinElmer Inc., Wellesley, Mass.). Binding data were analyzed by nonlinear regression analysis with the GraphPad Prism Software package (GraphPad Software, Inc., San Diego, Calif.) using the one-site competition model. […]

SMILES: COc1ccncc1CN1CCC(N(CCCCCCCN2CC[C@@H](C(C(N)=O)(c3ccccc3)c3ccccc3)C2)C(C)C)CC1 [Example 1]
- Ki: < 1 nM
